Measured values from publication PMC9896555, “Cyclic Acetals as Novel Long-Lasting Mosquito Repellents” (Journal of Agricultural and Food Chemistry, 2023).
Where two headings read alike, the source gives them in different places.

Columns and labels:
Aedes albopictus [1] = test: Protection time at 0.17 mg/cm2, human-bait technique; assay type: in vivo; conditions: for Average PT >95% (% coefficient of variation) / Estimated 100% PT (complete protection time, mean±SE): at the dose of 0.17mg/cm2; for Estimated 100% PT (complete protection time, mean±SE): Kaplan–Meier estimate; for pest or weed control at 0.17 mg/cm2, 0.17 mg/cm2: Aedes albopictus, topical, read-out: Protection time PE%; for Protection time (95% protection): dose of 0.17 mg/cm^2, tests ended after 8 h
Protocol: To evaluate the protection time of derivatives, the PE % was measured with 100 μL of a 5% ethanol solution, corresponding to 0.17 mg/cm^2 of exposed skin, under the same laboratory conditions. Mosquito-exposed skin was treated with 100 μL of ethanol, as the negative hand control. For each volunteer (up to 8), the test was performed every hour, up to 8 h from the application. The protection time of DEET and Icaridin was measured under the same conditions. Since these trials were run in parallel with those aimed to profile the cytotoxicity of the compounds (paragraph 2.6), we interrupted the experiments for those compounds showing to have higher cytotoxicity than Icaridin and DEET as soon as the results were available. For this reason, the number of volunteers differs among the compounds.
The average time until protection which was higher than 95% protection time was considered for each compound. Moreover, for the compounds tested on at least three volunteers, the complete (100%) protection time was also estimated (SPSS 28.01.0) using the Kaplan–Meier survivor function procedure.[22]

Aedes albopictus [2] = test: Effective dose / protection efficacy, human-bait technique; assay type: in vivo; conditions: for 100% PE: Table S1; for pest or weed control at 0.081 µg/cm2, 0.081 µg/cm2 / pest or weed control at 0.17 µg/cm2, 0.17 µg/cm2 / pest or weed control at 0.33 µg/cm2, 0.33 µg/cm2 / pest or weed control at 0.5 µg/cm2, 0.5 µg/cm2 / pest or weed control at 0.83 µg/cm2, 0.83 µg/cm2 / pest or weed control at 1.7 µg/cm2, 1.7 µg/cm2 / pest or weed control at 8.3 µg/cm2, 8.3 µg/cm2 / pest or weed control at 16.7 µg/cm2, 16.7 µg/cm2 / pest or weed control at 83.3 µg/cm2, 83.3 µg/cm2: Aedes albopictus, topical, read-out: Protection efficacy PE%; for Protection efficacy (dose to obtain complete protection (100%) from bite attempts): applied on skin of volunteers, 3 min exposure
Protocol: The repellence of DEET, Icaridin (both supplied by Istituto Biochimico VEBI s.r.l.), acetals, and the synthesized hydroxyacetals was evaluated againstAedes albopictususing the human-bait technique (to simulate the condition of human skin on which repellents will be applied).[22]A. albopictuswas reared and tested at 26 ± 2 °C, ≥60 ± 10% relative humidity (RH), and at 14:10 h light/dark photoperiod, within Plexiglas cylindrical laboratory cages (35 cm diameter, 60 cm length) with one end closed by a net. During the tests, cages contained ≈150 nulliparous, 4–7 day-old, nonblood-fed females. For each compound to be tested, up to six volunteers participated in the trial.
The study was approved by the Regional Ethics Committee for Clinical Trials of Tuscany Region with the registered number 20383. Volunteers agreed to take part in the experiments following informed consent; only volunteers non-allergic to mosquito bites participated in the trials. On the day of the bioassay, they had no contact with lotions, perfumes, oils, or perfumed soaps. They wore latex surgical gloves, in which a dorsal square area of 30 cm^2 was cut open. Mosquito-exposed skin was treated with 50 μL of ethanol, as the negative hand control. The other hand was treated with 50 μL of the tested compounds in ethanol solution (dosages corresponding to 0.081, 0.17, 0.33, 0.5, 0.83, 1.7, 8.3, 16.7, and 83.3 μg/cm^2). Both hands were presented in the same test cage. The number of probing mosquitoes in a 3 min exposure period was recorded. During each test, the control and the treated hand were presented interchanged to verify the mosquitoes’ readiness to bite. Trials were considered valid only if at least 30 mosquitoes performed probing behavior on the control hand before each repellent dosage was tested. The protection efficacy (PE %) obtained from all replicates was calculated, according to the WHO guidelines[31] using this formula [drawing 1]
To evaluate the protection efficacy, volunteers applied increasing doses of the compounds to the skin on the back of their hands (30 cm^2, while the rest was covered with a rubber glove) and counted the number of mosquitoes attempting to bite; the solvent only was used on the control hand. The protection (percentage of repelled mosquitoes) was calculated as reported in the Material and Methods section.

HaCaT cells = test: Cytotoxicity on human keratinocytes (MTS); assay type: cell-based; conditions: 82 μg/mL, 24 h
Protocol: HaCaT cells were cultured in 5% CO2 at 37 °C in Dulbecco’s modified Eagle’s medium (DMEM), supplemented with 10% fetal bovine serum (FBS), 1% L-glutamine ([…]), and 1% penicillin–streptomycin (Thermo Fisher Scientific, Rodano, Milan, Italy). […] Experiments were performed in triplicate.

With `CCCCCC1(CCCCC)OCC(CO)O1` (racemic) [23a] the “Protection time PE%” value (Aedes albopictus [1]; 0.17mg/cm2, 0 min) was 100%, the “Protection time PE%” value (Aedes albopictus [1]; 0.17mg/cm2, 1 h) was 99.62% and the “Protection time PE%” value (Aedes albopictus [1]; 0.17mg/cm2, 2 h) was 98.79%. The “Protection time PE%” value (Aedes albopictus [1]; 0.17mg/cm2, 3 h) was 97.92%, the “Protection time PE%” value (Aedes albopictus [1]; 0.17mg/cm2, 4 h) was 98.99% and the “Protection time PE%” value (Aedes albopictus [1]; 0.17mg/cm2, 5 h) was 88.68%. The “Protection time PE%” value (Aedes albopictus [1]; 0.17mg/cm2, 6 h) was 97.92%, the “Protection time PE%” value (Aedes albopictus [1]; 0.17mg/cm2, 7 h) was 92.53% and the “Protection time PE%” value (Aedes albopictus [1]; 0.17mg/cm2, 8 h) was 92.80%. The “Average PT >95% (% coefficient of variation)” value (Aedes albopictus [1]) was 360 (4.8) min, the “Estimated 100% PT (complete protection time, mean±SE)” value (Aedes albopictus [1]) was 240 ± 65 min and the “Protection efficacy PE%” value (Aedes albopictus [2]; 0.081 µg/cm2) was 33.33%. For the same molecule, the “Protection efficacy PE%” value (Aedes albopictus [2]; 0.17 µg/cm2) was 54.16%, the “Protection efficacy PE%” value (Aedes albopictus [2]; 0.33 µg/cm2) was 97.01% and the “Protection efficacy PE%” value (Aedes albopictus [2]; 0.5 µg/cm2) was 76.81%. The “Protection efficacy PE%” value (Aedes albopictus [2]; 0.83 µg/cm2) was 76.67%, the “Protection efficacy PE%” value (Aedes albopictus [2]; 1.7 µg/cm2) was 93.75% and the “Protection efficacy PE%” value (Aedes albopictus [2]; 8.3 µg/cm2) was 88.23%. For the same molecule, the “Protection efficacy PE%” value (Aedes albopictus [2]; 16.7 µg/cm2) was 98.04%, the “Protection efficacy PE%” value (Aedes albopictus [2]; 83.3 µg/cm2) was 100% and the “100% PE” value (Aedes albopictus [2]) was 83.3 µg/cm2.

`CC1(CO)COC2(CCCCC2)OC1` [6b] was tested, and the survival of keratocytes (HaCaT cells) was > 88%, the pest or weed control at 0.17 mg/cm2, 0.17 mg/cm2 (Aedes albopictus [1]; 0.17mg/cm2, 1 h) was 100% and the pest or weed control at 0.17 mg/cm2, 0.17 mg/cm2 (Aedes albopictus [1]; 0.17mg/cm2, 2 h) was 99.1%. It also gave a pest or weed control at 0.17 mg/cm2, 0.17 mg/cm2 (Aedes albopictus [1]; 0.17mg/cm2, 3 h) of 100%, a pest or weed control at 0.17 mg/cm2, 0.17 mg/cm2 (Aedes albopictus [1]; 0.17mg/cm2, 4 h) of 100% and a pest or weed control at 0.17 mg/cm2, 0.17 mg/cm2 (Aedes albopictus [1]; 0.17mg/cm2, 5 h) of 99.4%. The pest or weed control at 0.17 mg/cm2, 0.17 mg/cm2 (Aedes albopictus [1]; 0.17mg/cm2, 6 h) was 90.8%, the pest or weed control at 0.17 mg/cm2, 0.17 mg/cm2 (Aedes albopictus [1]; 0.17mg/cm2, 7 h) was 97.3% and the pest or weed control at 0.17 mg/cm2, 0.17 mg/cm2 (Aedes albopictus [1]; 0.17mg/cm2, 8 h) was 95.1%. The “Average PT >95% (% coefficient of variation)” value (Aedes albopictus [1]) was 480 (3.3) min, the “Estimated 100% PT (complete protection time, mean±SE)” value (Aedes albopictus [1]) was 375 ± 89 min and the “Protection time (95% protection)” value (Aedes albopictus [1]) was 8 h. The pest or weed control at 0.081 µg/cm2, 0.081 µg/cm2 (Aedes albopictus [2]; 0.081 µg/cm2) was 48.4%, the pest or weed control at 0.17 µg/cm2, 0.17 µg/cm2 (Aedes albopictus [2]; 0.17 µg/cm2) was 62.7% and the pest or weed control at 0.33 µg/cm2, 0.33 µg/cm2 (Aedes albopictus [2]; 0.33 µg/cm2) was 77%. For the same molecule, the pest or weed control at 0.5 µg/cm2, 0.5 µg/cm2 (Aedes albopictus [2]; 0.5 µg/cm2) was 64.9%, the pest or weed control at 0.83 µg/cm2, 0.83 µg/cm2 (Aedes albopictus [2]; 0.83 µg/cm2) was 100% and the pest or weed control at 1.7 µg/cm2, 1.7 µg/cm2 (Aedes albopictus [2]; 1.7 µg/cm2) was 100%. For the same molecule, the pest or weed control at 8.3 µg/cm2, 8.3 µg/cm2 (Aedes albopictus [2]; 8.3 µg/cm2) was 100%, the pest or weed control at 16.7 µg/cm2, 16.7 µg/cm2 (Aedes albopictus [2]; 16.7 µg/cm2) was 100% and the pest or weed control at 83.3 µg/cm2, 83.3 µg/cm2 (Aedes albopictus [2]; 83.3 µg/cm2) was 100%. For the same molecule, the “100% PE” value (Aedes albopictus [2]) was 0.83 µg/cm2 and the “Protection efficacy (dose to obtain complete protection (100%) from bite attempts)” value (Aedes albopictus [2]) was 0.83 μg/cm^2.

For `CCCCCCCC1(C)OCC(CO)O1` (stereo not drawn) [15a], the pest or weed control at 0.17 mg/cm2, 0.17 mg/cm2 (Aedes albopictus [1]; 0.17mg/cm2, 1 h) was 100%, the pest or weed control at 0.17 mg/cm2, 0.17 mg/cm2 (Aedes albopictus [1]; 0.17mg/cm2, 2 h) was 99.6% and the pest or weed control at 0.17 mg/cm2, 0.17 mg/cm2 (Aedes albopictus [1]; 0.17mg/cm2, 3 h) was 100%. The pest or weed control at 0.17 mg/cm2, 0.17 mg/cm2 (Aedes albopictus [1]; 0.17mg/cm2, 4 h) was 100%, the pest or weed control at 0.17 mg/cm2, 0.17 mg/cm2 (Aedes albopictus [1]; 0.17mg/cm2, 5 h) was 97.7% and the pest or weed control at 0.17 mg/cm2, 0.17 mg/cm2 (Aedes albopictus [1]; 0.17mg/cm2, 6 h) was 98.5%. The pest or weed control at 0.17 mg/cm2, 0.17 mg/cm2 (Aedes albopictus [1]; 0.17mg/cm2, 7 h) was 97.5%, the pest or weed control at 0.17 mg/cm2, 0.17 mg/cm2 (Aedes albopictus [1]; 0.17mg/cm2, 8 h) was 96.7% and the “Average PT >95% (% coefficient of variation)” value (Aedes albopictus [1]) was 480 (6.0) min. The “Estimated 100% PT (complete protection time, mean±SE)” value (Aedes albopictus [1]) was 380 ± 61 min, the “Protection time (95% protection)” value (Aedes albopictus [1]) was 8 h and the pest or weed control at 0.081 µg/cm2, 0.081 µg/cm2 (Aedes albopictus [2]; 0.081 µg/cm2) was 7.74%. For the same molecule, the pest or weed control at 0.17 µg/cm2, 0.17 µg/cm2 (Aedes albopictus [2]; 0.17 µg/cm2) was 35.8%, the pest or weed control at 0.33 µg/cm2, 0.33 µg/cm2 (Aedes albopictus [2]; 0.33 µg/cm2) was 45.9% and the pest or weed control at 0.5 µg/cm2, 0.5 µg/cm2 (Aedes albopictus [2]; 0.5 µg/cm2) was 54.7%. The pest or weed control at 0.83 µg/cm2, 0.83 µg/cm2 (Aedes albopictus [2]; 0.83 µg/cm2) was 62.2%, the pest or weed control at 1.7 µg/cm2, 1.7 µg/cm2 (Aedes albopictus [2]; 1.7 µg/cm2) was 89.4% and the pest or weed control at 8.3 µg/cm2, 8.3 µg/cm2 (Aedes albopictus [2]; 8.3 µg/cm2) was 98.8%. The pest or weed control at 16.7 µg/cm2, 16.7 µg/cm2 (Aedes albopictus [2]; 16.7 µg/cm2) was 100%, the pest or weed control at 83.3 µg/cm2, 83.3 µg/cm2 (Aedes albopictus [2]; 83.3 µg/cm2) was 100% and the “100% PE” value (Aedes albopictus [2]) was 16.7 µg/cm2. The “Protection efficacy (dose to obtain complete protection (100%) from bite attempts)” value (Aedes albopictus [2]) was 16.7 μg/cm^2.
